# How the values were obtained:
# [1] = test system: A549 non-small cell lung cancer cells; test: MTT cell proliferation assay; type: cell-based, human; conditions: A549, MTT, in combination with XB05, 72 h
# Experimental: (§1) Cell Proliferation Assays. The antiproliferative activity of XB05 was tested using a previously published 3-(4,5-dimethylthiazol-2-yl)-2,5-diphenyltetrazolium bromide (MTT) assay protocol (Girvan et al., “AGRO100 inhibits activation of nuclear factor-kappaB (NF-kappaB) by forming a complex with NF-kappaB essential modulator (NEMO) and nucleolin” Molecular Cancer Therapeutics (2006) Vol. 5, No. 7, pp. 1790-1799). Briefly, cells were seeded in quadruplicate wells in 96-well plates and allowed to adhere overnight. […] Plates were incubated with XB05 for 72 h, during which the cell culture medium was not changed. Cell viability was determined and the background corresponding to medium alone (no cells) was subtracted. Data were analyzed as described in the Brief Description of the Drawings.
# (§2) XB05 has Cancer-Selective Antiproliferative Activity. XB05 was tested to determine its antiproliferative activity in a variety of human cell lines that are derived from malignant tissues or from non-malignant (immortalized but not transformed) cells and listed in FIG. 1B. As described in Materials and Methods, cells were treated with varying concentrations of XB05 for 72 h and evaluated using the MTT cell proliferation assay.
# [2] = test system: U937 myeloid leukemia cells; test: MTT cell proliferation assay; type: cell-based, human; conditions: U937, MTT and flow cytometric assays, in combination with XB05, 72 h
# Experimental: as §1, §2
# MDA-MB-231 cells = test: Clonogenic cell survival assay; type: cell-based, human; conditions: MDA-MB-231, NAC and GSH 5 mM, AA 100 μM, 10 days
# Experimental: Clonogenic cell survival assays were conducted with MDA-MB-231 cells treated as indicated and grown in culture for 10 days (see Methods). Clonogenic Assays. Cells were plated at low density (300 cells/well) in 6-well tissue culture plates, and allowed to adhere overnight. Where indicated, the medium was then replaced with fresh medium containing antioxidants or vehicle (sterile ultrapure H2O). XB05 or vehicle control (DMSO) was then added directly to the medium at the concentrations indicated. After 10 days, cells were fixed with 4% paraformaldehyde in PBS and stained with Accustain Crystal Violet Solution (Sigma Aldrich) washed and air-dried. Colonies were counted using the cell counter feature in the Image J software, available from the National Institute of Health (<<rsbweb.nih.gov/ij/download.html>>).
# A549 cells [3] = type: cell-based; conditions: for effect of antioxidant on XB05-induced cell death: A549, annexin/PI, in combination with XB05, 72 h
# Experimental: Some cells were treated with buthionine sulfoximine (BSO, 200 μM) plus diethyl maleate (DEM, 1 mM) for 3 h as a positive control for GSH depletion. Bar graph indicates mean+/−SEM from three independent experiments. […] Membranes were stripped and reprobed for Ku-70 as a loading control.
# Flow Cytometric Assays. Analyses were performed using a FACScalibur flow cytometer (BD Biosciences, Mountain View, Calif.) and FlowJo software (Tree Star, Inc., Ashland, Oreg.). Cells were treated as indicated in the figures and in the Brief Description of the Drawings. Cells were harvested by using TrypLE Cell Dissociation Reagent (Life Technologies). For cell death analyses, cells (adherent and detached cells) were stained with annexin-V-FITC and propidium iodide (PI) using the Apoptosis Detection Kit (BD Biosciences, San Jose, Calif.), according to the manufacturer's instructions. For cell-cycle distribution, cells were fixed, and stained with PI using the Cycle Test Plus kit (Becton Dickinson, Franklin Lakes, N.J.). For detection of γ-H2AX, cells were washed with PBS and fixed in 4% paraformaldehyde in PBS for 10 min at 37° C. […] After washing with PBS, cells were re-suspended in PBS containing 1 μg/mL PI to allow exclusion of non-viable cells. For detection of mitochondrial superoxide, cells were harvested, washed with PBS and stained with 5 μM MitoSOX™ Red (Life Technologies) in warm PBS for 10 min at 37° C. Cells were then washed twice with PBS, re-suspended at a density of 1×10^6 cells/mL in PBS and analyzed by flow cytometry.
# A549 cells [4] = conditions: A549, in combination with XB05, 10 days
# Experimental: (C) Clonogenic cell survival assays were conducted in A549 cells treated as indicated and grown in culture for 10 days (see Methods). Bar graph indicates mean values (+/−SEM) for colony growth inhibition from 3 independent experiments. […] Clonogenic Assays. Cells were plated at low density (300 cells/well) in 6-well tissue culture plates, and allowed to adhere overnight. Where indicated, the medium was then replaced with fresh medium containing antioxidants or vehicle (sterile ultrapure H2O). XB05 or vehicle control (DMSO) was then added directly to the medium at the concentrations indicated. After 10 days, cells were fixed with 4% paraformaldehyde in PBS and stained with Accustain Crystal Violet Solution (Sigma Aldrich) washed and air-dried. Colonies were counted using the cell counter feature in the Image J software, available from the National Institute of Health (<<rsbweb.nih.gov/ij/download.html>>).
# U937 cells [5] = test: Clonogenic cell survival assay; type: cell-based, human; conditions: U937, 100 μM BHA, data not shown
# U937 cells [6] = test: Annexin/PI flow cytometric cell death analysis; type: cell-based, human; conditions: U937, 50 and 100 μM BSO, 1 μM XB05, 72 h
# Experimental: Data shown are representative of three independent experiments. (B) The cell lines indicated were treated with DMSO vehicle or XB05 (1 μM for U937 and Hs27, or 2 μM for A549) for the timepoints indicated. (C) The cell lines indicated were treated with DMSO vehicle, XB05 (1 μM for U937 and Hs27, or 2 μM for A549) or Thapsigargin positive control (2 μM) for 24 h. Densitometry was performed to quantify western blot band intensities for phospho-eIF2α (ser51), total eIF2α and BiP (representative blot shown in FIG. 8D). All values were normalized to DMSO vehicle control. Bar graphs indicate the average band intensity for three independent experiments, +/−the standard error of the mean. Statistical significance for XB05 compared to vehicle is indicated (*p≦0.05 and **p≦0.01).
# Flow Cytometric Assays. Analyses were performed using a FACScalibur flow cytometer (BD Biosciences, Mountain View, Calif.) and FlowJo software (Tree Star, Inc., Ashland, Oreg.). Cells were treated as indicated in the figures and in the Brief Description of the Drawings. Cells were harvested by using TrypLE Cell Dissociation Reagent (Life Technologies). […] Cells were then washed twice with PBS, re-suspended at a density of 1×10^6 cells/mL in PBS and analyzed by flow cytometry.
# Colo-205 xenografts = Colo-205 xenografts in nude mice; type: in vivo; conditions: 25 mg/kg daily for 21 days, i.v.
SMILES,effect of antioxidant on antiproliferative effects of XB05 [1],protection from antiproliferative and cytotoxic effects of XB05 [2],protection from cytotoxic effects of XB05 (MDA-MB-231 cells),effect of antioxidant on XB05-induced cell death (A549 cells [3]),effect of antioxidant on XB05 effect on clonogenic survival (A549 cells [4]),further results
"O=C1O[C@H]([C@@H](O)CO)C(O)=C1O [AA, L-ascorbic acid]",no effect,not,not,slightly enhanced the pro-apoptotic activity of XB05,no protective effect,–
"COc1ccc(O)c(C(C)(C)C)c1 [BHA, butylated hydroxyanisole]",–,–,–,–,–,protection from XB05 activity (U937 cells [5]): no protective effect
"CCCCS(=N)(=O)CCC(N)C(=O)O (centres unmarked) [BSO, buthionine sulfoximine]",–,–,–,–,–,"cytotoxicity of BSO plus XB05 compared to XB05 alone (U937 cells [6]): enhanced cytotoxicity compared to XB05 treatment alone; cytotoxicity of BSO plus XB05 compared to XB05 alone (A549 cells [3]; A549, 50 and 100 μM BSO, 2 μM XB05, 72 h): enhanced cytotoxicity compared to XB05 treatment alone"
"N[C@@H](CCC(=O)N[C@@H](CS)C(=O)NCC(=O)O)C(=O)O [GSH, reduced glutathione]",diminish the antiproliferative effects of XB05,protect these cells from the antiproliferative and cytotoxic effects of XB05,protect these cells from the cytotoxic effects of XB05,protected cells from XB05-induced apoptosis and nonapoptotic cell death,abrogated the effect of XB05 on clonogenic survival,–
CC/C=C\CCC(O)C#CC(F)(F)Br (centres unmarked) [LD-01-072],–,–,–,–,–,in vivo antitumor efficacy (Colo-205 xenografts): in vivo antitumor efficacy; non-specific toxicity judged by body weight (Colo-205 xenografts): no evidence of any severe non-specific toxicities
"CC(=O)N[C@@H](CS)C(=O)O [NAC, N-acetyl cysteine]",diminish the antiproliferative effects of XB05,protect these cells from the antiproliferative and cytotoxic effects of XB05,protect these cells from the cytotoxic effects of XB05,protected cells from XB05-induced apoptosis and nonapoptotic cell death,abrogated the effect of XB05 on clonogenic survival,–

# Source: US9737493B2, “Compositions and methods for modulating DNMT1 inhibitor activity” (University of Louisville Research Foundation, Inc., priority 2012, dated 2017)
